This note sets out measurements from patent publication US8637574B2, “Salts of 3-pentylphenylacetic acid and pharmaceutical uses thereof” (priority 2009, dated 2014).

In data set [1] the test system is ⅚ nephrectomized (Nx) rat model. In words: Kidney protection in ⅚ nephrectomized rat model (GFR, creatinine clearance). The data set is classed as in vivo. Conditions: Nx rats over treatment period; 50% deterioration in Nx control rats (FIG. 5). The text has this:
Male 6 week-old Wistar rats were subjected to ⅚ nephrectomy or sham operations. Under fluothane anesthesia, renal ablation was achieved by removing two-thirds of the left kidney followed by a right unilateral nephrectomy 7 days later. Sham rats underwent exposition of the kidneys and removal of the perirenal fat. Twenty-one days after the first operation, rats were randomized in the study by their reduced glomerular filtration rate (GFR) of creatinine indicating a dysfunction of the kidney. Animals that underwent the sham operation were given vehicle (saline) and were used as controls. Nx animals were divided in groups receiving the vehicle or Compound I. Saline or Compound I was given by gastric gavage once daily up to the sacrifice. GFR was measured every three weeks in order to assess the severity of this end-stage renal disease model. Rats were sacrificed at day 190.

The test system of data set [2] is RAW264.7 (macrophage-like) cells. In words: Nitric oxide production in LPS/interferon-stimulated RAW264.7 cells (Griess reagent). The data set is classed as cell-based. As to conditions: 1 μg/ml LPS and 0.5 ng/ml interferon, 16 hours, dose dependent. The protocol:
The effect of Compound I on NO production was undertaken in RAW264.7 (macrophage-like) cells. RAW264.7 cells were cultured with 1 μg/ml of LPS and 0.5 ng/ml of interferon in presence or absence of the compound for 16 hours in a humidified atmosphere of 95% air-5% carbon dioxide at 37° C. Nitric oxide measurement in the culture medium was measured using the Griess reagent after an incubation of 30 minutes at room temperature. The absorbance at 548 nm was read and compared with standard solutions of NaNO2. Cell viability was assessed with the addition of 50 μl of […]. After an incubation of 4 hours, the medium was removed and 150 μl of DMSO was added to dissolve the crystals. The optical density of each sample was read at 570 nm against a blank prepared from cell-free wells.

Data set [3] has as its system doxorubicin-induced nephrotoxicity model. In words: Doxorubicin-induced nephrotoxicity model (serum albumin, serum creatinine, kidney histology). The data set is classed as in vivo, mice. How it is done: C57BI/6 mice (6-10 week-old) were treated with Compound I prophylacticly from day −3 to day 10 or treated therapeutically from day 1 to 10. Nephrotoxicity was induced by an intravenous injection of 10 mg/kg of doxorubicin at day 0. Serum albumin and creatinine were monitored at days 4, 7, 9 and 11.

The nature of data set [4]: Physical properties of the salt and the free acid (hygroscopicity, water solubility). The data set is classed as physicochemical.
Another data set concerns PGE2. In words: LPS-induced inflammation in the rat air-pouch model (PGE2 in pouch exudates by ELISA). It counts as in vivo, rats. Conditions: two hours after administration of LPS (FIG. 3). The source says:
LPS-induced inflammation in the rat air-pouch model is believed to mimic the pathological process occurring in joint diseases such as arthritis. This is because the connective tissues formed along the air pouch are similar to those found in chronic joint diseases. LPS-induced inflammation and chronic joint diseases share other features, including markedly elevated PGE2, neutrophil infiltration, cytokine formation, and tissue damage. An air cavity was produced at day −6 by subcutaneous injection of 20 ml of sterile air into the intrascapular area of the back of male Lewis rats (175-200 g). An additional 10 ml of air was injected into the cavity at day −3 to keep the space open. At day 0, Compound I was administered intravenously and one hour later lipopolysaccharide (LPS: 2.5 ml, 2 μg/ml in PBS) was injected into the pouch to produce an inflammatory reaction. Two hours after treatment with LPS, animals were euthanized by CO2 asphyxiation and 5 ml of PBS/heparin (10 U/ml)/indomethacin (36 μg/ml) was injected into the pouch. The pouch fluid was collected and PGE2 was determined in the pouch exudates by ELISA.

Where a name gives a salt, the structure may show the parent alone.

For the compound `CCCCCc1cccc(CC(=O)O)c1` [Compound I, sodium salt of 3-pentylphenylacetic acid], the “improvement of GFR compared to the initial GFR (before treatment) at day 21” value in data set [1] was found to be 50%. Moreover, the “inhibition of NO production” value in data set [2] is on record as “about 50%”. Also, in data set [3] (prophylactic (pre-doxorubicin) and therapeutic (post-doxorubicin) treatments, mice (FIG. 9)), the “kidney lesions at the tubular level induced by doxorubicin (histological score)” value is reported as “reduce the kidney lesions”. Besides, the “protection of kidney against doxorubicin toxicity (histological micrographs)” value in data set [3] (prophylactic or therapeutic treatment, mice (FIG. 10)) is on record as “protects kidney against doxorubicin toxicity”. In addition, the “decrease of serum albumin induced by doxorubicin” value in data set [3] (prophylactic treatment day −3 to day 10, oral, mice (FIG. 7)) was “inhibits”. Moreover, the “increase of serum creatinine induced by doxorubicin” value in data set [3] (prophylactic treatment day −3 to day 10, oral, mice (FIG. 8)) is reported as “inhibits”. In addition, the “increase of serum creatinine level induced by doxorubicin” value in data set [3] (therapeutic treatment day 1 to 10, oral, mice (FIG. 8)) was “inhibits”. Moreover, in data set [4], the hygroscopicity entry is recorded as “not hygroscopic” and the water solubility entry is recorded as “very water soluble”.
For the compound `COc1cccc2c1C(=O)c1c(O)c3c(c(O)c1C2=O)C[C@@](O)(C(=O)CO)C[C@@H]3O[C@H]1C[C@H](N)[C@H](O)[C@H](C)O1` [Doxorubicin, doxorubicin, reference compound], in data set [3] (doxorubicin 10 mg/kg i.v. day 0, mice, day 7 and 11), the “kidney lesions induced by doxorubicin alone (histological score)” value was “significant kidney lesions”.
On to `COc1ccc2c(c1)c(CC(=O)O)c(C)n2C(=O)c1ccc(Cl)cc1` [indomethacin], for which, in the data set on PGE2, the “inhibition of PGE2” value is listed as “inhibition”.
